Legend:
TRPC5-SYFP2 = biological target: T1, TRPC5-SYFP2 (Homo sapiens, UniProt Q9UL62); test: Fura-2 [Ca2+]i recordings, HEK 293 transiently expressing TRPC5-SYFP2; format: cell-based; details: 10-1000 nM; compound plate illuminated at 380 nm; EA 100 nM as maximum
T1 construct: expressed in transfected cells; host or cells: HEK 293 (ATCC CRL 1573), transiently transfected (jetPRIME)
T1 sequence (Q9UL62 1-973): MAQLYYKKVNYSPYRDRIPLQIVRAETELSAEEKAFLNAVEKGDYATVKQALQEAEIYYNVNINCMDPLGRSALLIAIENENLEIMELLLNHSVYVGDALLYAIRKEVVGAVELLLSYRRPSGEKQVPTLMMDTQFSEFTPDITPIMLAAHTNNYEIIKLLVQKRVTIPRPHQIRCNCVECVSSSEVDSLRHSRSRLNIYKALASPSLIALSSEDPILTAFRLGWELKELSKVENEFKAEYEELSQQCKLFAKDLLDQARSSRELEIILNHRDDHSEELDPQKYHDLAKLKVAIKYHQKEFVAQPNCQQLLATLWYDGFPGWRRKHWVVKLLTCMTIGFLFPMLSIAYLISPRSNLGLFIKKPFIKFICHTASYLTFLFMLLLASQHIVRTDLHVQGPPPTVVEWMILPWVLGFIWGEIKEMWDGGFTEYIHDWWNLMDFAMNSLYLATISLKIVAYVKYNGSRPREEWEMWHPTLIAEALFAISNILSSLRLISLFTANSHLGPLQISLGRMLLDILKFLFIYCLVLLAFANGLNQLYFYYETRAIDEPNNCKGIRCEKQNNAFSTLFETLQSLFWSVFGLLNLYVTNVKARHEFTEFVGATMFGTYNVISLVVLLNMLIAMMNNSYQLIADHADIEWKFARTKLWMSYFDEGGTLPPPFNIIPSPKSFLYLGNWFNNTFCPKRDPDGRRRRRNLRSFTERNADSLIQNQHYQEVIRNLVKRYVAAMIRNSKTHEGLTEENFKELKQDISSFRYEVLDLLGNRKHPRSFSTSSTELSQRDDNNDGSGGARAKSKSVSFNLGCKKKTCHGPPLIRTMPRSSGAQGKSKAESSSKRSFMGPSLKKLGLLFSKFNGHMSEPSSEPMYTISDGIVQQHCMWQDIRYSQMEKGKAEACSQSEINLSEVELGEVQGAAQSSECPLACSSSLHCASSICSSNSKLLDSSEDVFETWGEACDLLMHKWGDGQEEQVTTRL
Source text: (§1) Müller, Niemeyer, et al., Schaefer & Thorn-Seshold 2025: Ideal Efficacy Photoswitching of TRPC4/5 in Tissue […]
(§2) 1.4.4 Differences and selectivity between TRPC5 and TRPC4?
(§3) AM237 activates TRPC5 but inhibits EA mediated activation of TRPC4; Pico145 inhibits both TRPC4 and TRPC5. Thus, somewhat naively, it could be argued that it is the para substituent here which affects both the efficacy mode and the selectivity for TRPC4 and/or TRPC5.
(§4) Intriguingly, Z-AzPico activates TRPC4 and TRPC5 with low nanomolar potency whereas Z-AzHC only activates TRPC5 but not TRPC4. Therefore, the meta substituent is now responsible for the selectivity in this case. The cryo-EM structures of Pico145 and HC-070 in complex with TRPC5 indicated the same binding site but the southern phenyl ring bearing the OCF3/Cl group is flipped and pointing in opposite directions.
(§5) Z isomers, i.e. Z-buried vs. E-projected. Additionally, both E-AzPico and E-AzHC inhibit EA […]
It is not surprising that both ligands bind to either protein because there is a high sequence similarity among the TRPC family in the identified binding pocket for Pico145 /HC-070, and in the binding region, human TRPC4/5 differ only by a single amino acid (TRPC5: V579, TRPC4: I579). We […]
the result of differences in this residue. […]
(§6) Intracellular calcium ([Ca2+]i) was measured using the ratiometric Ca2+ dye Fura-2. […]

TRPC4β-I575V-SYFP2 = biological target: T2, TRPC4β-I575V-SYFP2 (Homo sapiens, UniProt Q9UBN4, I575V); test: Fura-2 [Ca2+]i recordings, HEK 293 transiently expressing TRPC4β-I575V-SYFP2; format: cell-based; details: AzHC 10-1000 nM, AM237 100 nM
T2 construct: expressed in transfected cells; host or cells: HEK 293 (ATCC CRL 1573), transiently transfected (jetPRIME)
Source text: as §1
1.4.3 Note on TRPC4 / TRPC5 Sequence Alignment
The key contact residues of interest in the ligand binding site are highly conserved between TRPC4 and TRPC5. The relevant sequences in the site are: […]
as §2, §3, §4, §5, §6

T2 sequence (Q9UBN4 other isoform, or with tags, fused parts or gaps I575V): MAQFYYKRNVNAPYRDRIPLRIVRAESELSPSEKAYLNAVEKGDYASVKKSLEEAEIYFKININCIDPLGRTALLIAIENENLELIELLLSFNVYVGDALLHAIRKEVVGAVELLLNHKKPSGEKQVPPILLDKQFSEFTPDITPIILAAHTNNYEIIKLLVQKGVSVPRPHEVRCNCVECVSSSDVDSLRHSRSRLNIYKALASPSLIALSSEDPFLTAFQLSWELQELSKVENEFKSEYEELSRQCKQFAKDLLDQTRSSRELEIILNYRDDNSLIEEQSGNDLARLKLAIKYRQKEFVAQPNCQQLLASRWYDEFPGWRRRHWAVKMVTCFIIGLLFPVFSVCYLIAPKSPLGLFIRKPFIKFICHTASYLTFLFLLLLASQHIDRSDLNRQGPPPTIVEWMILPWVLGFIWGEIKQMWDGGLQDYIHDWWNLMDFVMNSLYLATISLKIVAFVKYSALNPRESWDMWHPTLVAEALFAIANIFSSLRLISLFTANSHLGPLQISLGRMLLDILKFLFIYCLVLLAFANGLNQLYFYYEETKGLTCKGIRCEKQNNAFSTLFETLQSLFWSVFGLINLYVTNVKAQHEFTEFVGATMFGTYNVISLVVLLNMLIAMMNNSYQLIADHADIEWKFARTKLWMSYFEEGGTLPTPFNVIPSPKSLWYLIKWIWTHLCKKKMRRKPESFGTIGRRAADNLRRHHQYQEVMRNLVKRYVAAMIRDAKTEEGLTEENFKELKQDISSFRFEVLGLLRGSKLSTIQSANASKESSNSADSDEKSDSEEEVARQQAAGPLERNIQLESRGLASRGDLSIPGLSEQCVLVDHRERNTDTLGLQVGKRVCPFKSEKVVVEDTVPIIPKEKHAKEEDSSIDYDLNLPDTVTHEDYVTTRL

Row | SMILES | Effect on [Ca2+]i, TRPC5 (TRPC5-SYFP2) | Effect on [Ca2+]i, TRPC4I575V (TRPC4β-I575V-SYFP2)
1 | Cn1c(=O)n(CCCO)c(=O)c2c1nc(Oc1ccc(Cl)c(OC(F)(F)F)c1)n2Cc1ccc(Cl)cc1 [AM237, reference compound] | partial agonists | do not activate
2 | Cn1c(=O)n(CCCO)c(=O)c2c1nc(Oc1ccc(/N=N\c3ccccc3)c(Cl)c1)n2Cc1ccc(Cl)cc1 [Z*-AzHC] | partial agonists | do not activate
